The text below walks through data of ChEMBL document CHEMBL5375986, “Discovery of Lead 2-Thiazolylhydrazones with Broad-Spectrum and Potent Antifungal Activity” (J Med Chem, 2023).

Each structure is given as a SMILES string. Converted amounts (≈) assume the structure as drawn. A value given as a limit tells only on which side of the number the result lay.

The test system of one data set is Candida tropicalis. The data set is described as follows: Antifungal activity against Candida tropicalis ATCC 750 assessed as inhibition of fungal growth incubated for 24 to 48 hrs by CLSI protocol based broth microdilution method. The class given is functional. To be noted: time 24-48 hrs.
Data set [1] is described as follows: Antifungal activity against Cryptococcus gattii ATCC 24065 assessed as inhibition of fungal growth incubated for 24 to 48 hrs by CLSI protocol based broth microdilution method. The class given is functional, Cryptococcus gattii VGI. To be noted: time 24-48 hrs. In general terms: Broth dilution looks for growth in wells or tubes with falling amounts of substance.

Data set [2] deals with Cryptococcus neoformans. In words: Antifungal activity against Cryptococcus neoformans ATCC 24067 assessed as inhibition of fungal growth incubated for 24 to 48 hrs by CLSI based broth microdilution method. To be noted: time 24-48 hrs. The data set is classed as functional.
For another data set, the system named is Candida parapsilosis. The data set is described as follows: Antifungal activity against Candida parapsilosis ATCC 22019 assessed as inhibition of fungal growth incubated for 24 to 48 hrs by CLSI protocol based broth microdilution method. The data set is classed as functional. To be noted: Lodderomyces parapsilosis, time 24-48 hrs.
The test system of another data set is Nakaseomyces glabratus. In words: Antifungal activity against Candida glabrata ATCC 2001 assessed as inhibition of fungal growth incubated for 24 to 48 hrs by CLSI protocol based broth microdilution method. The class given is functional. To be noted: time 24-48 hrs.
A further data set has as its system Pichia kudriavzevii. The data set is described as follows: Antifungal activity against Candida krusei ATCC 20298 assessed as inhibition of fungal growth incubated for 24 to 48 hrs by CLSI protocol based broth microdilution method. The data set is classed as functional. To be noted: time 24-48 hrs.
A further data set relates to [Candida] auris. In words: Antifungal activity against Candida auris COLO 01 assessed as inhibition of fungal growth incubated for 24 to 48 hrs by CLSI protocol based broth microdilution method. The data set is classed as functional. To be noted: Candidozyma auris, time 24-48 hrs.
Data set [3] relates to Candida albicans. In words: Antifungal activity against Candida albicans SC5314 assessed as inhibition of fungal growth incubated for 24 to 48 hrs by CLSI protocol based broth microdilution method. The data set is classed as functional. To be noted: time 24-48 hrs.
Data set [4] in a line: Antifungal activity against Cryptococcus gattii VGI assessed as inhibition of fungal growth. The class given is functional.
For data set [5], the system named is Cryptococcus neoformans. The data set is described as follows: Antifungal activity against Cryptococcus neoformans assessed as inhibition of fungal growth. The class given is functional.
In data set [6] the test system is Candida albicans. In words: Antifungal activity against Candida albicans assessed as inhibition of fungal growth. The class given is functional.
Data set [7] can be described thus: Cytotoxicity against human PBMC cells assessed as inhibition of cell growth incubated for 24 to 48 hrs by MTT assay. The data set is classed as toxicity, cell-based. In general terms: Tetrazolium dyes change colour on reduction, which living cells bring about.

A word on the MIC: it is the lowest concentration found to suppress growth. On to `CCOC(=O)c1sc(N/N=C\C2CCCCC2)nc1C`, for which the minimum inhibitory concentration (MIC) (in the data set on Candida tropicalis; in [1]; in the data set with Cryptococcus neoformans [2]; in the data set on Candida parapsilosis; in the data set with Nakaseomyces glabratus; in the data set on Pichia kudriavzevii) was above 125 µM in each case. Further, the MIC (in data set [Candida] auris; in the data set with Candida albicans [3]) was above 125 µM each time.

Regarding `C/C(CCC(=O)O)=N\Nc1nc(-c2ccccc2)cs1`, the MIC in the data set with Candida tropicalis came to 3.4 µM (≈ 0.984 µg/mL); in [1], 6.7 µM (≈ 1.94 µg/mL); in the data set with Cryptococcus neoformans [2] it was 6.7 µM (≈ 1.94 µg/mL); in the data set on Candida parapsilosis it was 13.5 µM (≈ 3.91 µg/mL); in the data set with Nakaseomyces glabratus it was 1.7 µM (≈ 0.492 µg/mL); in the data set with Pichia kudriavzevii it was 13.5 µM (≈ 3.91 µg/mL). The MIC (in data set [Candida] auris; in the data set on Candida albicans [3]) was 3.4 µM (≈ 0.984 µg/mL) each time.

As for `CCN1CCCC(/C=N/Nc2nc(-c3ccc(Br)cc3)cs2)C1` (centres undefined), the minimum inhibitory concentration (MIC) in the data set on Candida tropicalis was 79.7 µM (≈ 31.4 µg/mL); in data set [1], 72.9 µM (≈ 28.7 µg/mL); in the data set on Cryptococcus neoformans [2], 72.9 µM (≈ 28.7 µg/mL); in the data set with Candida parapsilosis, 19.9 µM (≈ 7.83 µg/mL); in the data set with Nakaseomyces glabratus, above 125 µM; in the data set with Pichia kudriavzevii it was 2.5 µM (≈ 0.983 µg/mL). The minimum inhibitory concentration (MIC) in [Candida] auris amounted to 19.9 µM (≈ 7.83 µg/mL); with Candida albicans [3], 39.8 µM (≈ 15.7 µg/mL).

As for `CCOC(=O)Cc1csc(NN=C(C)CCO)n1`, the minimal inhibitory concentration (MIC) in the data set on Candida tropicalis is 57.6 µM (≈ 15.6 µg/mL); in data set [1], above 125 µM; with Cryptococcus neoformans [2] it was above 125 µM; with Candida parapsilosis it was 115 µM (≈ 31.3 µg/mL); with Nakaseomyces glabratus it was 7.2 µM (≈ 1.95 µg/mL); with Pichia kudriavzevii it was 3.6 µM (≈ 0.977 µg/mL). Also, the MIC (in data set [Candida] auris; with Candida albicans [3]) was 115 µM (≈ 31.3 µg/mL) throughout.

Take `COc1ccc(-c2csc(NN=C(C)CCO)n2)cc1`: the minimum inhibitory concentration (MIC) in data set [4] was 0.9 µM (≈ 0.262 µg/mL); in the data set with Cryptococcus neoformans [5], 0.45 µM (≈ 0.131 µg/mL).

As for `CCOC(=O)/C(C)=N\Nc1nc(C)c(C(=O)OCC)s1`, the MIC is 104 µM (≈ 31.3 µg/mL) in the data set with Candida tropicalis; above 125 µM in data set [1]; above 125 µM in the data set with Cryptococcus neoformans [2]; above 125 µM in the data set on Candida parapsilosis; above 125 µM in the data set with Nakaseomyces glabratus; above 125 µM in the data set on Pichia kudriavzevii. The MIC (in [Candida] auris; with Candida albicans [3]) was above 125 µM in each case.

For the compound `CCOC(=O)Cc1csc(N/N=C\C2CCCCC2)n1`, the minimal inhibitory concentration (MIC) was 6.6 µM (≈ 1.95 µg/mL) in the data set with Candida tropicalis; 106 µM (≈ 31.3 µg/mL) in [1]; 106 µM (≈ 31.3 µg/mL) with Cryptococcus neoformans [2]; 52.9 µM (≈ 15.6 µg/mL) with Candida parapsilosis; above 125 µM in the data set on Nakaseomyces glabratus; 0.8 µM (≈ 0.236 µg/mL) in the data set with Pichia kudriavzevii. The minimum inhibitory concentration (MIC) (in data set [Candida] auris; with Candida albicans [3]) was 52.9 µM (≈ 15.6 µg/mL) throughout.

With `CCOC(=O)/C(C)=N/Nc1nc(-c2ccc(Br)cc2)cs1`, the minimum inhibitory concentration (MIC) with Candida tropicalis came out at 21.2 µM (≈ 7.81 µg/mL); in [1], 84.9 µM (≈ 31.3 µg/mL); in the data set with Cryptococcus neoformans [2], 84.9 µM (≈ 31.3 µg/mL); with Candida parapsilosis, 84.9 µM (≈ 31.3 µg/mL); in the data set on Nakaseomyces glabratus, 21.2 µM (≈ 7.81 µg/mL); in the data set with Pichia kudriavzevii it was 10.6 µM (≈ 3.9 µg/mL). The minimal inhibitory concentration (MIC) was 21.2 µM (≈ 7.81 µg/mL) in data set [Candida] auris and 84.9 µM (≈ 31.3 µg/mL) in the data set with Candida albicans [3].

For `CC(CCO)=NNc1nc(-c2ccc(C#N)cc2)cs1`, the figures for the MIC (in the data set with Candida albicans [6]; in data set [4]; with Cryptococcus neoformans [5]) were 1.95 µM (≈ 0.558 µg/mL), 0.12 µM (≈ 0.0344 µg/mL) and 0.12 µM (≈ 0.0344 µg/mL), respectively.

For `C[C@@H]1[C@H](O)[C@@H](C)/C=C/C=C/C=C/C=C/C=C/C=C/C=C/[C@H](O[C@@H]2O[C@H](C)[C@@H](O)[C@H](N)[C@@H]2O)C[C@@H]2O[C@](O)(C[C@@H](O)C[C@@H](O)[C@H](O)CC[C@@H](O)C[C@@H](O)CC(=O)O[C@H]1C)C[C@H](O)[C@H]2C(=O)O` [AMPHOTERICIN B], the MIC with Candida tropicalis turned out to be 0.5 µM (≈ 0.462 µg/mL); in [1], 1.1 µM (≈ 1.02 µg/mL); in the data set with Cryptococcus neoformans [2], 0.5 µM (≈ 0.462 µg/mL); with Candida parapsilosis it was 2.2 µM (≈ 2.03 µg/mL); with Nakaseomyces glabratus, 1.1 µM (≈ 1.02 µg/mL); with Pichia kudriavzevii, 4.3 µM (≈ 3.97 µg/mL). In addition, the minimum inhibitory concentration (MIC) in data set [Candida] auris was found to be 4.3 µM (≈ 3.97 µg/mL); in the data set with Candida albicans [3], 2.2 µM (≈ 2.03 µg/mL).

By IC50 is commonly meant the midpoint of a concentration-inhibition curve. On to `Nc1ccn([C@@H]2O[C@H](CO)[C@@H](O)[C@@H]2O)c(=O)n1` [CYTARABINE], for which the half-inhibitory concentration (IC50) in data set [7] came to 181 µM.

Consider `Cc1ccc(NC(=O)c2ccc(CN3CCN(C)CC3)cc2)cc1Nc1nccc(-c2cccnc2)n1` [IMATINIB], for which the half-inhibitory concentration (IC50) in [7] turned out to be 159 µM.

Take `CCC(C)n1ncn(-c2ccc(N3CCN(c4ccc(OCC5COC(Cn6cncn6)(c6ccc(Cl)cc6Cl)O5)cc4)CC3)cc2)c1=O` (centres undefined) [ITRACONAZOLE]: the minimum inhibitory concentration (MIC) came to 0.2 µM (≈ 0.141 µg/mL) in the data set on Candida tropicalis; 2.8 µM (≈ 1.98 µg/mL) in data set [1]; 1.4 µM (≈ 0.988 µg/mL) with Cryptococcus neoformans [2]; 0.4 µM (≈ 0.282 µg/mL) with Candida parapsilosis; 0.4 µM (≈ 0.282 µg/mL) in the data set with Nakaseomyces glabratus; 2.8 µM (≈ 1.98 µg/mL) in the data set with Pichia kudriavzevii. The MIC was found to be 0.4 µM (≈ 0.282 µg/mL) in [Candida] auris and 0.7 µM (≈ 0.494 µg/mL) with Candida albicans [3].
